# Source: ChEMBL document CHEMBL1201862, “PubChem BioAssay data set” (2004)
# Active and inactive are the calls of the source.
# How the values were obtained:
# [1] = target: Eukaryotic translation initiation factor 4H (Homo sapiens, UniProt Q15056); test: eIF4H binding inhibition – biochemical, uHTS, fluorescence polarization, translation initiation inhibitor project, primary screen (AID 2012)
# [2] = target: Polyadenylate-binding protein 1 (Homo sapiens, UniProt P11940); test: blockers of PABP interaction with poly(A) – biochemical, fluorescence polarization, […] (AID 2014)
# [3] = target: FAD-linked sulfhydryl oxidase ALR (Homo sapiens, UniProt P55789); test: ALR-catalysed DTT oxidation blockers – biochemical, H2O2 detection, luminescence, cherry-pick, dose response (AID 493248)
# [4] = target: T1, DNA dC->dU-editing enzyme APOBEC-3G (Homo sapiens, UniProt Q9HC16); test: Dose Response confirmation of small molecule APOBEC3G DNA Deaminase Inhibitors via a fluorescence-based single-stranded DNA deaminase assay. [Related pubchem assays (depositor defined):AID493012, AID493028]; format: functional
# [5] = target: T2, Short transient receptor potential channel 4 (Mus musculus, UniProt Q9QUQ5); test: calcium entry via TRPC4 opening agents – cell-based, HEK293 TRPC4/mu-opioid, Fluo-4 calcium, dose response (AID 434937); format: functional
# T2 sequence (Q9QUQ5 whole entry): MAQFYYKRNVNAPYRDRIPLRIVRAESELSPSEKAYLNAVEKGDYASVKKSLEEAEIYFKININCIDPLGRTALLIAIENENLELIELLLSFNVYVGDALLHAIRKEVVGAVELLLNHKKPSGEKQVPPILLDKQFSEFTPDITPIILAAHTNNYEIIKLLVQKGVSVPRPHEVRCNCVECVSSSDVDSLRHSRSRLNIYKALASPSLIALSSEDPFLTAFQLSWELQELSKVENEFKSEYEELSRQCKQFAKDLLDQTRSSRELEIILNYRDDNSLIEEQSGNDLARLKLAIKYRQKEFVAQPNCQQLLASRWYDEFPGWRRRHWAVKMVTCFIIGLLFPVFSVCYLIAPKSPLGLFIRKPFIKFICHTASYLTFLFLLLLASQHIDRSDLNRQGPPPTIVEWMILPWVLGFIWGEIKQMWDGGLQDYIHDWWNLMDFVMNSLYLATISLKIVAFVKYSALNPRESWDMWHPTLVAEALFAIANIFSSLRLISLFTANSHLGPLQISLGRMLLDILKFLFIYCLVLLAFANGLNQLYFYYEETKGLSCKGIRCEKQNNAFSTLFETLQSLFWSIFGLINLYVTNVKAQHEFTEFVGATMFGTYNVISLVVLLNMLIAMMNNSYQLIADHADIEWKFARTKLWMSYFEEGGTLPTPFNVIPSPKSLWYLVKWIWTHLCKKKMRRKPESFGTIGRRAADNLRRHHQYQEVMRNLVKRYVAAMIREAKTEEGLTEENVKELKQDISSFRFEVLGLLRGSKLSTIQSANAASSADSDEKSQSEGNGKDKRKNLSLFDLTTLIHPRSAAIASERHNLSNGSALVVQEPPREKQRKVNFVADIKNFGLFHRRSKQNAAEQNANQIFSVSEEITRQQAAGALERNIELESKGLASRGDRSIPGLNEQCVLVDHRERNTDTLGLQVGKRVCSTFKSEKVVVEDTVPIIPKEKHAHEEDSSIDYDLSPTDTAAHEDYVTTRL
# [6] = target: G-protein coupled receptor 55 (Homo sapiens, UniProt Q9Y2T6); test: selective activators of receptor GPR55 – imaging, U2OS cells, beta-arrestin-GFP redistribution, primary screen (AID 1961); format: functional
# [7] = target: Glucose-6-phosphate 1-dehydrogenase (Homo sapiens, UniProt P11413); test: inhibition of Homo sapiens G6PD, dose series – biochemical, fluorescence, selectivity assay for P. falciparum G6PD inhibitor project, dose response (AID 504792); format: functional
# [8] = target: Large T antigen (Simian virus 40, UniProt P03070); format: functional, Betapolyomavirus macacae;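 note: Confirmatory-stage PubChem screen for compounds that inhibit SV40 T antigen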
# [9] = target: T3, Protein RecA (Mycobacterium tuberculosis, UniProt P9WHJ3); test: Fluorescence Cell-Free Homogeneous Dose Retest to Identify Inhibitors of RecA-Intein Splicing Activity. [Related pubchem assays (depositor defined):AID2097, AID2223, AID489010, AID492950]; format: functional
# T3 sequence (P9WHJ3 whole entry): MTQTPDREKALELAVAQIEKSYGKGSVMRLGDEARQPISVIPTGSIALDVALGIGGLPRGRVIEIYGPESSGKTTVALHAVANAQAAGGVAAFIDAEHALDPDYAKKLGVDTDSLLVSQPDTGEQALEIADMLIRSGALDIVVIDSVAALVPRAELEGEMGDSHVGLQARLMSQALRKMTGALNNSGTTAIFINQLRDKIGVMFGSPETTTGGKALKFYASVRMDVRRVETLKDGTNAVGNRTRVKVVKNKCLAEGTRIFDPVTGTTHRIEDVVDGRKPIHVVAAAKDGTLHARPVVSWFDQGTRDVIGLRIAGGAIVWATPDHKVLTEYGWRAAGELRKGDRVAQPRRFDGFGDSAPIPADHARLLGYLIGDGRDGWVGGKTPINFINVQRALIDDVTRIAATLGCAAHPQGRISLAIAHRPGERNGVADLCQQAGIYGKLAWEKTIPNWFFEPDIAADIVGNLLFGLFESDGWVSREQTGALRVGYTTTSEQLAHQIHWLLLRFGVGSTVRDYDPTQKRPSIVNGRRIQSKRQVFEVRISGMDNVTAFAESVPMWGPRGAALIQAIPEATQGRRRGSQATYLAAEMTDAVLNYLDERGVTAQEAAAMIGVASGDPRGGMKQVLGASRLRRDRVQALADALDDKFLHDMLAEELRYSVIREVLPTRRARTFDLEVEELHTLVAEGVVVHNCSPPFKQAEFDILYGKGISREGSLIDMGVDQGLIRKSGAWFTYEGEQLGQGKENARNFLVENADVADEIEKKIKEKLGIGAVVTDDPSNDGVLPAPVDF
# [10] = target: T4, Replicative DNA helicase DnaB (Mycobacterium tuberculosis, UniProt P9WMR3); test: DnaB intein splicing inhibitors, dose response, biochemical, cell-free fluorescence (AID 449749); format: functional
# T4 sequence (P9WMR3 whole entry): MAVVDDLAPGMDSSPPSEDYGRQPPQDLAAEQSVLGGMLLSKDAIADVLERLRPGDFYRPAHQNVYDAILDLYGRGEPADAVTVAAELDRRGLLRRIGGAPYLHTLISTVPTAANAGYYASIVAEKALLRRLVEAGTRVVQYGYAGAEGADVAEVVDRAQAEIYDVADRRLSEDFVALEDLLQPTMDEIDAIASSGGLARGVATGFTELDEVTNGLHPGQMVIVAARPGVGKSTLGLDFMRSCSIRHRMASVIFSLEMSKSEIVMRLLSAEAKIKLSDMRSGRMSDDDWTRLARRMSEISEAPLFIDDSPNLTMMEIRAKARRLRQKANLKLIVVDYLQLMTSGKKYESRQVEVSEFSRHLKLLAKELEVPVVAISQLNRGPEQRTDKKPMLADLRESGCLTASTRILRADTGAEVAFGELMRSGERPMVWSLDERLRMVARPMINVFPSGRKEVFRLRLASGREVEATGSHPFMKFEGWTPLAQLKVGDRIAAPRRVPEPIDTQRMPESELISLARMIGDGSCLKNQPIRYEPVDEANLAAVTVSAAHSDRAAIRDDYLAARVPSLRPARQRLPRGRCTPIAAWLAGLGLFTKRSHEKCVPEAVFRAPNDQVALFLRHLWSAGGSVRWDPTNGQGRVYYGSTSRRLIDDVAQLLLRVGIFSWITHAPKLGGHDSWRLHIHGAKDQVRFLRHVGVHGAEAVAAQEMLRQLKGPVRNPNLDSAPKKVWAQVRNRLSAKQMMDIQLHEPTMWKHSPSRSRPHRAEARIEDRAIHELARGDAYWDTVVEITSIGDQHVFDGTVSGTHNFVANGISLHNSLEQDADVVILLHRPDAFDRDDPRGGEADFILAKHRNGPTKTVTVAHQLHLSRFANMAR
# [11] = target: DNA dC->dU-editing enzyme APOBEC-3A (Homo sapiens, UniProt P31941); test: Dose Response confirmation of small molecule APOBEC3A DNA Deaminase Inhibitors via a fluorescence-based single-stranded DNA deaminase assay. [Related pubchem assays (depositor defined):AID493011, AID493024]; format: functional
# [12] = target: T1, DNA dC->dU-editing enzyme APOBEC-3G; format: functional
# [13] = target: T5, Aminopeptidase N (Plasmodium falciparum FcB1/Columbia, UniProt O96935); test: malaria alanyl aminopeptidase activity blockers – biochemical, fluorogenic H-Leu-NHMec substrate, 1536-well (AID 1445); parameters: species or system Plasmodium falciparum 3D7, 3D7
# T5 sequence (O96935 whole entry): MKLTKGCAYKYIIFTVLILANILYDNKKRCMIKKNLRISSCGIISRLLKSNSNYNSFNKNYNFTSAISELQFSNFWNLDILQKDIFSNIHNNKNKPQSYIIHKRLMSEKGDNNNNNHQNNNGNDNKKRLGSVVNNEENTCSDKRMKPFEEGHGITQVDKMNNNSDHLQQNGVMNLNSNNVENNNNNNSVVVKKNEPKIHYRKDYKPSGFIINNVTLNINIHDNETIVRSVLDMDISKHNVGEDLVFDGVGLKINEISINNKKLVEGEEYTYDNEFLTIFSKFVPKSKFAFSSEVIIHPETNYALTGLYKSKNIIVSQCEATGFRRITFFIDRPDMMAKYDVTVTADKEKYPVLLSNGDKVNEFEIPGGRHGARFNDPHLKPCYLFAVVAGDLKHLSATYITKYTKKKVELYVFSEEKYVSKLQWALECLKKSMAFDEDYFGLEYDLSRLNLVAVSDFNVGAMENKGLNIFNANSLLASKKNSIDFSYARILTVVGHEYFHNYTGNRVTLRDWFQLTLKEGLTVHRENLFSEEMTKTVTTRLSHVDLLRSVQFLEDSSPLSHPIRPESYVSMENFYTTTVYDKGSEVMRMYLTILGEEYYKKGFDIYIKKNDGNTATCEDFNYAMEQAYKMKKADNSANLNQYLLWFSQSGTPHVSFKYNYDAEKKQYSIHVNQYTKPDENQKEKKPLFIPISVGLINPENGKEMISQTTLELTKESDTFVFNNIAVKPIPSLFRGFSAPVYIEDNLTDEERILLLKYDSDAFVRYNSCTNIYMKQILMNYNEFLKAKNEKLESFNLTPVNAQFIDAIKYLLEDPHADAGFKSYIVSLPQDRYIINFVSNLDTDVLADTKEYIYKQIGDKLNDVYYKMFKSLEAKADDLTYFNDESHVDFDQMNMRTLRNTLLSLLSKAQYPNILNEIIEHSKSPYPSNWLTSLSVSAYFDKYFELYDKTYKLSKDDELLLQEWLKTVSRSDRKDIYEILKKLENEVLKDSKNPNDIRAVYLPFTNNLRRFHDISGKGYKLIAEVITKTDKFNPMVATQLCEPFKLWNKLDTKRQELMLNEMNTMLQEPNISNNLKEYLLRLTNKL
# [14] = viability of uninfected HEp-2 cells – cell-based, HTS, cytotoxicity control for RSV inhibitor project, dose response (AID 2410); format: functional; settings: human respiratory syncytial virus
# Sequence of DNA dC->dU-editing enzyme APOBEC-3A (P31941 whole entry): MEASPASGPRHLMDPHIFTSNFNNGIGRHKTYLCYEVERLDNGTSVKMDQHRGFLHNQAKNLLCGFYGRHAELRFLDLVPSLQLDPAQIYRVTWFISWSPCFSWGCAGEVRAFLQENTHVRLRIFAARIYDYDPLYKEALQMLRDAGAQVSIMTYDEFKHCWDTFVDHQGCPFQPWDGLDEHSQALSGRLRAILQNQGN
# Sequence of Glucose-6-phosphate 1-dehydrogenase (P11413 whole entry): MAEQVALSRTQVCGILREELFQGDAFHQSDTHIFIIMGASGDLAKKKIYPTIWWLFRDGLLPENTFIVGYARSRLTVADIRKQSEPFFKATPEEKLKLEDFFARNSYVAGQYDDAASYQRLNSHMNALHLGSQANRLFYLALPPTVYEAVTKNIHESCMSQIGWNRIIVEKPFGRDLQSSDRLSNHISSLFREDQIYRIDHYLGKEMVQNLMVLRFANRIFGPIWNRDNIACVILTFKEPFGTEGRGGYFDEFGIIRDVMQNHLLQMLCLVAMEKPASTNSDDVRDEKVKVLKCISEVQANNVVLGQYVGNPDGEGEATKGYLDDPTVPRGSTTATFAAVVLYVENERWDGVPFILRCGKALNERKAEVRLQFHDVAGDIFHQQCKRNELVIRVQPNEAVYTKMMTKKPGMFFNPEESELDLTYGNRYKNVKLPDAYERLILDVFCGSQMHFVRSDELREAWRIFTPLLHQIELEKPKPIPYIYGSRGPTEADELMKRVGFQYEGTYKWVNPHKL
# T1 sequence (Q9HC16 whole entry): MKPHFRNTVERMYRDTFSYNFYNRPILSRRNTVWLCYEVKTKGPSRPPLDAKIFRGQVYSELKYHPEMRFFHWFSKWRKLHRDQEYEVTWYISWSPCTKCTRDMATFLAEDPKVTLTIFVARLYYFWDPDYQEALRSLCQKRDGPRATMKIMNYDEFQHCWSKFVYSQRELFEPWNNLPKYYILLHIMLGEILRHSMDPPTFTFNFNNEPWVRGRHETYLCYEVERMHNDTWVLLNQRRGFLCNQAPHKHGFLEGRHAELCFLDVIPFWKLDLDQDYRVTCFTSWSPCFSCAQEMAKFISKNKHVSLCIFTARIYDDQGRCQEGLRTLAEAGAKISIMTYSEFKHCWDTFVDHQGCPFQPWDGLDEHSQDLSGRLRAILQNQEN
# Sequence of Polyadenylate-binding protein 1 (P11940 whole entry): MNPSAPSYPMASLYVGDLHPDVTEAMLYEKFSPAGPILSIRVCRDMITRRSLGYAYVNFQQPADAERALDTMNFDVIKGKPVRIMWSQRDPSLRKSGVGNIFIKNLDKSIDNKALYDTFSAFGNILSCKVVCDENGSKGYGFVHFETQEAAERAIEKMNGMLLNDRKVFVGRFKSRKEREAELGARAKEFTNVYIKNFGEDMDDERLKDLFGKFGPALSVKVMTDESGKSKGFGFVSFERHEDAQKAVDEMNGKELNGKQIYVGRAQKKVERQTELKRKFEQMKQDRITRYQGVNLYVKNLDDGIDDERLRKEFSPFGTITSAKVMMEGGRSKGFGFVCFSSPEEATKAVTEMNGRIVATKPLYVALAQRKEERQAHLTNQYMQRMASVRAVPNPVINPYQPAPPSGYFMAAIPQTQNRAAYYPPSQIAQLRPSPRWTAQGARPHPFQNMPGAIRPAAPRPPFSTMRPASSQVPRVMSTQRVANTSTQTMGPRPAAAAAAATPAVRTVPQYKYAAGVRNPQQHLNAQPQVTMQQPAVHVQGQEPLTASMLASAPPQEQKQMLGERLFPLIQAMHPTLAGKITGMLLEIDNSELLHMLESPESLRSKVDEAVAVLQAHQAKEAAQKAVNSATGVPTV
# Sequence of G-protein coupled receptor 55 (Q9Y2T6 whole entry): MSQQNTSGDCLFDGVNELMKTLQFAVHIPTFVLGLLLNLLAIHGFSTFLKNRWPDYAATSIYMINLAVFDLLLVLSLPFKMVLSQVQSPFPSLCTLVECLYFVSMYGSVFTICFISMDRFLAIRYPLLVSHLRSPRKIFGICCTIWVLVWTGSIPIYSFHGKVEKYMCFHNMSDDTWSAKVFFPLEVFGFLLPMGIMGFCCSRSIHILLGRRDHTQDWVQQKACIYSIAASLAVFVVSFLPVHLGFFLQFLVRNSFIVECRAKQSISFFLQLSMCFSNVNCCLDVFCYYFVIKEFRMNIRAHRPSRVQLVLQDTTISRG
# Sequence of Large T antigen (P03070 whole entry): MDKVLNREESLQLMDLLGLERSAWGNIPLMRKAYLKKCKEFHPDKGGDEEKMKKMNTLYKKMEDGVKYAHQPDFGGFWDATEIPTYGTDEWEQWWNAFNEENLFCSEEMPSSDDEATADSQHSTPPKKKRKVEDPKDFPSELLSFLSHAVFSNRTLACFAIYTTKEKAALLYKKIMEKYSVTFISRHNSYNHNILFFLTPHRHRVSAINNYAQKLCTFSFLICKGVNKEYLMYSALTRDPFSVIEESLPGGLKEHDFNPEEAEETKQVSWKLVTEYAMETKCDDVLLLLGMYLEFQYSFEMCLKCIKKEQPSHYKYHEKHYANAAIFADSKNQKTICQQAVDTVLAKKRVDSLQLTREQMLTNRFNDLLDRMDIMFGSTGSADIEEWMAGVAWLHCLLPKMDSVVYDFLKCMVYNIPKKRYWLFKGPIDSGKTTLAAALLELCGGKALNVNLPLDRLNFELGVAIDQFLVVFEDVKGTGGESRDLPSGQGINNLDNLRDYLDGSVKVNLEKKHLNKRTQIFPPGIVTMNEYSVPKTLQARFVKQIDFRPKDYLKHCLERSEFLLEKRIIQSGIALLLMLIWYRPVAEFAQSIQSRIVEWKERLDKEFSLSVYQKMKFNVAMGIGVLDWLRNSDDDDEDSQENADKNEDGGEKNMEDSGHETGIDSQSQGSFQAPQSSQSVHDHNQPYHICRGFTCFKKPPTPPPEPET
# Sequence of FAD-linked sulfhydryl oxidase ALR (P55789 whole entry): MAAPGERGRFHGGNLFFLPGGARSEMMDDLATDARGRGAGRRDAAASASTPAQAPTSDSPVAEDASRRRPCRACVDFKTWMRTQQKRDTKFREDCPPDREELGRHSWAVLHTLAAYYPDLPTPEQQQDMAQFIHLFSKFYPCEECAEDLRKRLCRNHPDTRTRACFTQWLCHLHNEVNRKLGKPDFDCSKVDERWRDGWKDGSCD
compound,measurement,setting,value
CCN1C(=NCC(C)C)N[C@@H](c2cccc(F)c2)C(C(=O)OC)=C1C,IC50,[1],> 100 µM (inactive)
same,IC50,[2],5.33 µM (active)
O=S(=O)(Nc1ccc(O)c(NS(=O)(=O)c2ccccc2)c1)c1ccccc1,AC50,[3],1.23 µM (active)
same,IC50,[4],55.1 µM (active)
Cc1cc(=O)n2nc(-c3ccccc3)sc2c1C#N,IC50,[4],39.2 µM (active)
CCn1c(N2CCN(S(=O)(=O)CC)CC2)nc2ccccc21,EC50,[5],2.66 µM (active)
COc1ccc(C(=O)NC(=S)NCc2ccc(-c3nc4ccccc4o3)cc2)cc1OC,EC50,[6],> 32 µM (inactive)
CC1(C)Nc2ccc(O)cc2-c2c1ssc2=S,IC50,[7],> 80 µM (inactive)
same,IC50,[8],> 100 µM (active)
same,EC50,[9],0.998 µM (active)
same,AC50,[10],9 µM (active)
CCN1C(NCCOC)=N[C@@H](CCc2ccccc2)[C@H](C(=O)OC)[C@H]1C,IC50,[1],> 100 µM (inactive)
same,IC50,[2],8.16 µM (active)
same,IC50,[11],3.39 µM (active)
same,IC50,[12],4.15 µM (active)
O=C(NCCNC1CCC(c2ccccc2)CC1)c1cccs1 (centres undefined),EC50,[5],0.335 µM (active)
O=C(NCc1ccccc1)C1CCN(S(=O)(=O)c2cccc3cccnc23)CC1,IC50,[13],42.1 µM (active)
Cc1nnc(SCC(=O)c2cc(C)n(-c3ccc4c(c3)OCO4)c2C)s1,IC50,[7],> 80 µM (inactive)
CC(CCc1ccccc1)NC(=O)C(Cc1ccccc1)NS(=O)(=O)c1cccs1 (centres undefined),IC50,[13],71.4 µM (active)
CN(C)c1cccc2c1c(NC(=O)c1ccc(F)cc1)nn2C,IC50,[7],> 80 µM (inactive)
CCOCCCn1c(S)nnc1-c1ccc(Cl)cc1,IC50,[4],13.8 µM (active)
C[N+]1(C)C2CCC1CC(OC(=O)c1ccccc1)C2 (centres undefined),IC50,[11],2.96 µM (active)
same,IC50,[12],1.75 µM (active)
COC(=O)C1=C(C)N(Cc2ccccc2)C(NCCCOC(C)C)=N[C@H]1c1ccccc1,IC50,[11],3.37 µM (active)
same,IC50,[12],5.12 µM (active)
CCOc1ccccc1/N=C1/SCCCN1C,IC50,[1],> 100 µM (inactive)
same,IC50,[2],4.4 µM (active)
CCOc1cc(C2Nc3cccc4cccc(c34)N2)ccc1O,CC50,[14],20.2 µM (active)
same,EC50,[6],8.01 µM (active)
